Data published in publication PMC11255338, “A deterministic, c-di-GMP-dependent program ensures the generation of phenotypically similar, symmetric daughter cells during cytokinesis” (Nature Communications, 2024).
Each block holds one compound with its values, some of them ahead of it.

Columns and labels:
MalE-DmxA^WT [1] = molecular target: T1, MalE-DmxA^WT (Myxococcus xanthus, UniProt Q1D632); experiment: diguanylate cyclase assay, pyrophosphate release (EnzChek); type: biochemical; settings: 1 µM protein, 50 µM GTP; I-site mutant
T1 construct: gene MXAN_3705; residues 223-722 (two GAF domains + GGDEF; N-terminal transmembrane domain removed), N-terminal MalE (MBP) tag kept, pMAL-c6t, E. coli Rosetta DE3; dimer by SEC
T1 sequence (Q1D632 entry or part of it R603A): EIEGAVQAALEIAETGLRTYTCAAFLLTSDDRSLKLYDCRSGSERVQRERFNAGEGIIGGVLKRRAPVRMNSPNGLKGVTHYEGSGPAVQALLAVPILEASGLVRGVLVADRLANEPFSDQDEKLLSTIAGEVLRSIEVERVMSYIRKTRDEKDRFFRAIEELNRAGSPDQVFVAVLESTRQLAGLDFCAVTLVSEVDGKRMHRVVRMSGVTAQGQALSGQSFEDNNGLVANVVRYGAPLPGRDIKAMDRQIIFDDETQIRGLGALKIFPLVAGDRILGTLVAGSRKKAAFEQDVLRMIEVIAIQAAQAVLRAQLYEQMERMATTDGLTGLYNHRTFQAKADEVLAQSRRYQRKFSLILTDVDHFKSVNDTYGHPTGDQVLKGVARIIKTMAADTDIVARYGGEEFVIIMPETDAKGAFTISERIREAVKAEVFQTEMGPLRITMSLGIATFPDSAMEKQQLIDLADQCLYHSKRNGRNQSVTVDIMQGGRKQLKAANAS

MalE-DmxA^WT [2] = molecular target: T2, MalE-DmxA^WT (Myxococcus xanthus, UniProt Q1D632); experiment: as above; type: biochemical; settings: 1 µM protein, 50 µM GTP
T2 construct: gene MXAN_3705; residues 223-722 (two GAF domains + GGDEF; N-terminal transmembrane domain removed), N-terminal MalE (MBP) tag kept, pMAL-c6t, E. coli Rosetta DE3; dimer by SEC
T2 sequence (Q1D632 211-710): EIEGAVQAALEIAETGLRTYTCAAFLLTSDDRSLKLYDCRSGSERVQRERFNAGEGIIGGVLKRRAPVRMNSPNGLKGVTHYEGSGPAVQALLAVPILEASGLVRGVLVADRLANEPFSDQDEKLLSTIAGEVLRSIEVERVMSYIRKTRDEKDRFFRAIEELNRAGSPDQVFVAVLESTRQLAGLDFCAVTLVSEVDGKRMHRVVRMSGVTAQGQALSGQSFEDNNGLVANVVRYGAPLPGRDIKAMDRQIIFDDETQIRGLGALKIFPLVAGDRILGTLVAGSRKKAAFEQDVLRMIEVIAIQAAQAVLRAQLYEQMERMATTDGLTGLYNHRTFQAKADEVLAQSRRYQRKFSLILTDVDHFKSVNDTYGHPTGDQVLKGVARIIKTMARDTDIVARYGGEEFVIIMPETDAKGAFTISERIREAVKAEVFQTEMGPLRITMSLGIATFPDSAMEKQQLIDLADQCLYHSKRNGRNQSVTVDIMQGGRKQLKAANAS

MalE-DmxA^WT [3] = molecular target: T2, MalE-DmxA^WT; experiment: diguanylate cyclase assay, pyrophosphate release (EnzChek), variable-slope inhibition fit; type: biochemical
MalE-DmxA^WT [4] = molecular target: T3, MalE-DmxA^WT (Myxococcus xanthus, UniProt Q1D632, E614A); experiment: bio-layer interferometry, biotinylated c-di-GMP immobilised on streptavidin sensor; type: binding; settings: labelled compound (biotinylated c-di-GMP, immobilised); 10 µM protein; active-site mutant
T3 construct: gene MXAN_3705; residues 223-722 (two GAF domains + GGDEF; N-terminal transmembrane domain removed), N-terminal MalE (MBP) tag kept, pMAL-c6t, E. coli Rosetta DE3; dimer by SEC

[5] = molecular target: MalE-DmxA^E626A (DmxA residues 223-722 with the catalytic-site substitution E626A) (Myxococcus xanthus DK1622); experiment: SEC; HiLoad 16/600 Superdex 200 pg; SEC buffer 50 mM Tris-HCl pH 7.2, 250 mM NaCl, 10 mM MgCl2, 5 mM DTT, 5% glycerol; column calibrated with Ribonuclease A, Carbonic Anhydrase, Conalbumin and Ferritin; oligomeric state estimated from the elution volume
[6] = molecular target: MalE-DmxA^GAF×2 (DmxA residues 223-547: only the two GAF domains) (Myxococcus xanthus DK1622); experiment: as above
[7] = molecular target: MalE-DmxA^R615A (DmxA residues 223-722 with the I-site substitution R615A) (Myxococcus xanthus DK1622); experiment: as above
[8] = molecular target: MalE-DmxA^WT (DmxA residues 223-722: two GAF domains and the GGDEF domain) (Myxococcus xanthus DK1622); experiment: as above

T3 sequence (Q1D632 entry or part of it E614A): as the sequence (Q1D632 entry or part of it R603A) above, with A393R, E404A counted along it

Compound: Nc1nc2c(ncn2[C@@H]2O[C@H](COP(=O)(O)OP(=O)(O)OP(=O)(O)O)[C@@H](O)[C@H]2O)c(=O)[nH]1 [GTP]
diguanylate cyclase assay, pyrophosphate release (EnzChek) (MalE-DmxA^WT [1]): MalE-DmxA^WT and MalE-DmxA^R615A had DGC activity
diguanylate cyclase assay, pyrophosphate release (EnzChek) (MalE-DmxA^WT [2]): MalE-DmxA^WT and MalE-DmxA^R615A had DGC activity

Compound: Nc1nc2c(ncn2[C@@H]2O[C@@H]3COP(=O)(O)O[C@H]4[C@@H](O)[C@H](n5cnc6c(=O)[nH]c(N)nc65)O[C@@H]4COP(=O)(O)O[C@H]3[C@H]2O)c(=O)[nH]1 [c-di-GMP]
Ki (MalE-DmxA^WT [3]): ~15 µM
bio-layer interferometry, biotinylated c-di-GMP immobilised on streptavidin sens (MalE-DmxA^WT [4]): MalE-DmxA^WT and MalE-DmxA^E626A bound c-di-GMP

Compound: MalE-DmxA^GAF×2 (DmxA residues 223-547: only the two GAF domains) (domain or fragment)
stoichiometry N [6]: 2

Next, values leading:

stoichiometry N [5]: 2
Compound: MalE-DmxA^E626A (DmxA residues 223-722 with the catalytic-site substitution E626A) (domain or fragment)

stoichiometry N [7]: 2
Compound: MalE-DmxA^R615A (DmxA residues 223-722 with the I-site substitution R615A) (domain or fragment)

stoichiometry N [8]: 2
Compound: MalE-DmxA^WT (DmxA residues 223-722: two GAF domains and the GGDEF domain) (domain or fragment)
